Reference: ChEMBL document CHEMBL1201862, “PubChem BioAssay data set” (2004)
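Briefly, cells in 96-well plates were exposed to five compound concentrations for 48 h, and endpoints were estimated by linear interpolation. At the GI50, growth is halved.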 Active and inactive are the calls of the source. No stated cut-off is given here; in the data, active = GI50 up to about 1.1 µM and inactive = higher.

Tests used:
Assay in all cases: DTP human tumour cell line panel, 48 h
TK-10 = tested on: TK-10
U-251 = tested on: U-251
RPMI-8226 = tested on: RPMI-8226
OVCAR-8 = tested on: OVCAR-8
SR = tested on: SR
UO-31 = tested on: UO-31
SN12C = tested on: SN12C
HOP-92 = tested on: HOP-92
HT-29 = tested on: HT-29
SK-MEL-2 = tested on: SK-MEL-2
OVCAR-4 = tested on: OVCAR-4
SF-268 = tested on: SF-268
MCF7 = tested on: MCF7
Malme-3M = tested on: Malme-3M
SK-MEL-5 = tested on: SK-MEL-5
CAKI-1 = tested on: CAKI-1
NCI-H23 = tested on: NCI-H23
HCC 2998 = tested on: HCC 2998
HOP-62 = tested on: HOP-62
HL-60 = tested on: HL-60

Measured: GI50

Cc1cc(C)c(S(=O)(=O)N(CCCCN)OCCCN)c(C)c1
inactive: TK-10 18 µM | U-251 15.4 µM | RPMI-8226 8.04 µM | OVCAR-8 17.4 µM | SR 9.59 µM | UO-31 17.5 µM | SN12C 18.7 µM | HOP-92 19 µM | HT-29 14.3 µM | SK-MEL-2 15.1 µM | OVCAR-4 17.5 µM | SF-268 18.4 µM | MCF7 17.7 µM | Malme-3M 20.9 µM | SK-MEL-5 23.7 µM | CAKI-1 17.4 µM | NCI-H23 26.9 µM | HCC 2998 2.28 µM

c1ccc(C(NC2=NCCO2)C2CC2)cc1 (stereo not drawn)
inactive: TK-10 > 100 µM | U-251 > 100 µM | RPMI-8226 > 100 µM | OVCAR-8 > 100 µM | SR > 100 µM | UO-31 > 100 µM | SN12C > 100 µM | HOP-92 > 100 µM | HOP-62 > 100 µM | HT-29 58.1 µM | SK-MEL-2 > 100 µM | OVCAR-4 > 100 µM | SF-268 > 100 µM | MCF7 > 100 µM | Malme-3M > 100 µM | SK-MEL-5 > 100 µM | NCI-H23 > 100 µM | HCC 2998 > 100 µM

C/C(=N\Nc1nc2ccccc2[nH]1)c1cccc[n+]1[O-]
inactive: TK-10 67.1 µM | U-251 75 µM | RPMI-8226 > 100 µM | OVCAR-8 > 100 µM | SR 30.1 µM | UO-31 64.6 µM | SN12C > 100 µM | HOP-92 33.9 µM | HOP-62 > 100 µM | HT-29 32.1 µM | SK-MEL-2 > 100 µM | OVCAR-4 > 100 µM | SF-268 > 100 µM | MCF7 > 100 µM | Malme-3M 52.7 µM | SK-MEL-5 > 100 µM | CAKI-1 34.5 µM | NCI-H23 > 100 µM | HCC 2998 6.55 µM

O=C(O)c1cnc2c(ccc3ncc(C(=O)O)c(O)c32)c1O
inactive: TK-10 > 100 µM | U-251 > 100 µM | RPMI-8226 > 100 µM | OVCAR-8 > 100 µM | SR > 100 µM | UO-31 > 100 µM | SN12C > 100 µM | HOP-92 > 100 µM | HOP-62 > 100 µM | HT-29 > 100 µM | SK-MEL-2 > 100 µM | OVCAR-4 > 100 µM | SF-268 > 100 µM | HL-60 > 100 µM | MCF7 > 100 µM | Malme-3M > 100 µM | SK-MEL-5 > 100 µM | CAKI-1 > 100 µM | NCI-H23 > 100 µM

Cc1cc(NC(=S)SCc2ccc(F)cc2)c([N+](=O)[O-])cc1C
inactive: TK-10 24.2 µM | U-251 22.4 µM | OVCAR-8 19 µM | SR 20.3 µM | SN12C 19.4 µM | HOP-92 18.4 µM | HOP-62 24.7 µM | HT-29 13.6 µM | OVCAR-4 30.9 µM | SF-268 31.5 µM | HL-60 16.9 µM | MCF7 42.1 µM | Malme-3M 25.6 µM | SK-MEL-5 8.71 µM | CAKI-1 47.2 µM | NCI-H23 29.8 µM

COc1ccc(/C=C2\CCNC2=O)cc1
inactive: U-251 > 100 µM | RPMI-8226 > 100 µM | OVCAR-8 > 100 µM | UO-31 75.2 µM | SN12C > 100 µM | HOP-92 > 100 µM | HOP-62 40.6 µM | HT-29 > 100 µM | SK-MEL-2 > 100 µM | OVCAR-4 > 100 µM | SF-268 > 100 µM | HL-60 > 100 µM | MCF7 > 100 µM | Malme-3M > 100 µM | SK-MEL-5 > 100 µM | CAKI-1 > 100 µM | NCI-H23 > 100 µM | HCC 2998 > 48.5 µM

O=C(O)C1(C(O)c2ccccc2)SCCCS1 (stereo not drawn)
inactive: TK-10 > 10 µM | U-251 > 10 µM | OVCAR-8 > 10 µM | SR > 10 µM | UO-31 > 10 µM | SN12C > 10 µM | HOP-92 > 10 µM | HOP-62 > 10 µM | HT-29 > 10 µM | SK-MEL-2 > 10 µM | SF-268 > 10 µM | HL-60 > 10 µM | MCF7 > 10 µM | Malme-3M > 10 µM | SK-MEL-5 > 10 µM | NCI-H23 > 10 µM

N#C/C(N)=C(C#N)/N=C/NCc1ccccc1
inactive: TK-10 > 100 µM | U-251 > 100 µM | RPMI-8226 > 100 µM | OVCAR-8 > 100 µM | SR > 100 µM | UO-31 > 100 µM | SN12C > 100 µM | HOP-62 > 100 µM | HT-29 > 100 µM | SK-MEL-2 38.4 µM | OVCAR-4 > 100 µM | SF-268 > 100 µM | HL-60 > 100 µM | MCF7 > 100 µM | Malme-3M > 100 µM | SK-MEL-5 > 100 µM | CAKI-1 > 100 µM | NCI-H23 > 100 µM | HCC 2998 > 100 µM
